Measurements: US6737383B1, “Herbicidal oxadiazolidines” (priority 1999, dated 2004)

Assays:
wild oat = assay: Test B pre/postemergence wild oat; assay type: in vivo, Avena fatua
Procedure, shortened: (§1)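 Herbicidal effect was estimated by eye on a ten-point control scale after plants spent twelve to sixteen days in a greenhouse following soil or foliar treatment. Foliar sprays targeted plants at one to four leaves; all doses were formulated in a non-phytotoxic solvent with surfactant.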

sugar beet = assay: Test B pre/postemergence sugar beet; assay type: in vivo, Beta vulgaris
Procedure, shortened: as §1

bamyardgrass = assay: Test B flood test barnyardgrass; assay type: in vivo, Echinochloa crus-galli
Procedure, shortened: (§2)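 Plants were grown to the 2-leaf stage before treatment with test chemical, then held in a greenhouse for twelve to sixteen days. Injury was visually rated against untreated controls on a 0–10 scale, where 0 is no effect and 10 is complete control.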

rice = assay: Test B flood test rice; assay type: in vivo, Oryza sativa
Procedure, shortened: as §2

crabgrass = assay: Test B pre/postemergence crabgrass; assay type: in vivo, Digitaria sanguinalis
Procedure, shortened: as §1

rape = assay: Test B pre/postemergence rape; assay type: in vivo, Brassica napus
Procedure, shortened: as §1

pigweed = assay: Test B pre/postemergence pigweed; assay type: in vivo, Amaranthus retroflexus
Procedure, shortened: as §1

purple nutsedge = assay: Test B pre/postemergence purple nutsedge; assay type: in vivo, Cyperus rotundus
Procedure, shortened: as §1

velvetleaf = assay: Test B pre/postemergence velvetleaf; assay type: in vivo, Abutilon theophrasti
Procedure, shortened: as §1

cocklebur = assay: Test B pre/postemergence cocklebur; assay type: in vivo, Xanthium strumarium
Procedure, shortened: as §1

morningglory = assay: Test B pre/postemergence morningglory; assay type: in vivo, Ipomoea hederacea
Procedure, shortened: as §1

giant foxtail = assay: Test B pre/postemergence giant foxtail; assay type: in vivo, Setaria faberii
Procedure, shortened: as §1

surinam grass = assay: Test B pre/postemergence surinam grass; assay type: in vivo, Brachiaria decumbens
Procedure, shortened: as §1

wheat = assay: Test B pre/postemergence wheat; assay type: in vivo, Triticum aestivum
Procedure, shortened: as §1

smallflower flatsedge = assay: Test B flood test smallflower flatsedge; assay type: in vivo, Cyperus difformis
Procedure, shortened: as §2

blackgrass = assay: Test B pre/postemergence blackgrass; assay type: in vivo, Alopecurus myosuroides
Procedure, shortened: as §1

[1] = Postemergence, Rate 250 g/ha, scale 0 to 10
[2] = Postemergence, Rate 500 g/ha, scale of 0 to 10 where 0 is no effect and 10 is complete control
[3] = Preemergence, Rate 62 g/ha, scale of 0 to 10 where 0 is no effect and 10 is complete control
[4] = Preemergence, Rate 125 g/ha, scale of 0 to 10 where 0 is no effect and 10 is complete control
[5] = Preemergence, Rate 250 g/ha, scale 0 to 10, 0 is no effect, 10 is complete control
[6] = Preemergence, Rate 500 g/ha, scale 0 to 10, 0 is no effect, 10 is complete control
[7] = Rate 62 g/ha, Postemergence, scale 0 to 10 (0 no effect, 10 complete control)
[8] = Rate 125 g/ha, Postemergence, scale 0 to 10, 0 is no effect, 10 is complete control
[9] = Rate 62 g/ha, flood test species, Pre-emergence, visual evaluation after twelve to sixteen days
[10] = Rate 125 g/ha, under heading Pre-emergence, flood test species, visual evaluation after twelve to sixteen days
[11] = Rate 250 g/ha, Pre-emergence (flood test species), scale 0 to 10, 0 is no effect, 10 is complete control
[12] = Rate 500 g/ha, Pre-emergence, flood test species, scale 0 to 10 (0 no effect, 10 complete control)

COC(C)n1c(=O)on(C(=O)N(c2ccccc2)C(C)C)c1=O (centres unmarked) [Compound 441]
0: Wild oats plant response rating (wild oat; [1]) | Wild oats plant response rating (wild oat; [2]) | Plant response rating, Wild oats (wild oat; [3]) | Plant response rating, Wild oats (wild oat; [4]) | Wild oats plant response rating (wild oat; [5]) | Wild oats plant response rating (wild oat; [6]) | Wild oats plant response rating (wild oat; [7]) | Wild oats plant response rating (wild oat; [8]) | Sugarbeets plant response rating (sugar beet; [1]) | Sugarbeets plant response rating (sugar beet; [2]) | Plant response rating, Sugarbeets (sugar beet; [3]) | Plant response rating, Sugarbeets (sugar beet; [4]) | Sugarbeets plant response rating (sugar beet; [5]) | Sugarbeets plant response rating (sugar beet; [6]) | Sugarbeets plant response rating (sugar beet; [7]) | Sugarbeets plant response rating (sugar beet; [8]) | Plant response rating, Barnyardgrass (0 to 10 scale, 0 is no effect, 10 is complete control) (bamyardgrass; [9]) | Barnyardgrass plant response rating (0 to 10 scale, 0 is no effect, 10 is complete control) (bamyardgrass; [10]) | Barnyardgrass plant response rating (bamyardgrass; [11]) | Barnyardgrass plant response rating (bamyardgrass; [12]) | Plant response rating, Rice (0 to 10 scale, 0 is no effect, 10 is complete control) (rice; [9]) | Rice plant response rating (0 to 10 scale, 0 is no effect, 10 is complete control) (rice; [10]) | Rice plant response rating (rice; [11]) | Rice plant response rating (rice; [12]) | Crabgrass plant response rating (crabgrass; [1]) | Crabgrass plant response rating (crabgrass; [2]) | Plant response rating, Crabgrass (crabgrass; [3]) | Plant response rating, Crabgrass (crabgrass; [4]) | Crabgrass plant response rating (crabgrass; [5]) | Crabgrass plant response rating (crabgrass; [6]) | Crabgrass plant response rating (crabgrass; [7]) | Crabgrass plant response rating (crabgrass; [8]) | Rape plant response rating (rape; [1]) | Rape plant response rating (rape; [2]) | Plant response rating, Rape (rape; [3]) | Plant response rating, Rape (rape; [4]) | Rape plant response rating (rape; [5]) | Rape plant response rating (rape; [6]) | Rape plant response rating (rape; [7]) | Rape plant response rating (rape; [8]) | Redroot pigweed plant response rating (pigweed; [1]) | Redroot pigweed plant response rating (pigweed; [2]) | Plant response rating, Redroot pigweed (pigweed; [3]) | Plant response rating, Redroot pigweed (pigweed; [4]) | Redroot pigweed plant response rating (pigweed; [5]) | Redroot pigweed plant response rating (pigweed; [6]) | Redroot pigweed plant response rating (pigweed; [7]) | Redroot pigweed plant response rating (pigweed; [8]) | Nutsedge plant response rating (purple nutsedge; [1]) | Nutsedge plant response rating (purple nutsedge; [2]) | Plant response rating, Nutsedge (purple nutsedge; [3]) | Plant response rating, Nutsedge (purple nutsedge; [4]) | Nutsedge plant response rating (purple nutsedge; [5]) | Nutsedge plant response rating (purple nutsedge; [6]) | Nutsedge plant response rating (purple nutsedge; [7]) | Nutsedge plant response rating (purple nutsedge; [8]) | Velvetleaf plant response rating (velvetleaf; [1]) | Velvetleaf plant response rating (velvetleaf; [2]) | Plant response rating, Velvetleaf (velvetleaf; [3]) | Plant response rating, Velvetleaf (velvetleaf; [4]) | Velvetleaf plant response rating (velvetleaf; [5]) | Velvetleaf plant response rating (velvetleaf; [6]) | Velvetleaf plant response rating (velvetleaf; [7]) | Velvetleaf plant response rating (velvetleaf; [8]) | Cocklebur plant response rating (cocklebur; [1]) | Cocklebur plant response rating (cocklebur; [2]) | Plant response rating, Cocklebur (cocklebur; [3]) | Plant response rating, Cocklebur (cocklebur; [4]) | Cocklebur plant response rating (cocklebur; [5]) | Cocklebur plant response rating (cocklebur; [6]) | Cocklebur plant response rating (cocklebur; [7]) | Cocklebur plant response rating (cocklebur; [8]) | Morningglory plant response rating (morningglory; [1]) | Morningglory plant response rating (morningglory; [2]) | Plant response rating, Morningglory (morningglory; [3]) | Plant response rating, Morningglory (morningglory; [4]) | Morningglory plant response rating (morningglory; [5]) | Morningglory plant response rating (morningglory; [6]) | Morningglory plant response rating (morningglory; [7]) | Morningglory plant response rating (morningglory; [8]) | Giant foxtail plant response rating (giant foxtail; [1]) | Giant foxtail plant response rating (giant foxtail; [2]) | Plant response rating, Giant foxtail (giant foxtail; [3]) | Plant response rating, Giant foxtail (giant foxtail; [4]) | Giant foxtail plant response rating (giant foxtail; [5]) | Giant foxtail plant response rating (giant foxtail; [6]) | Giant foxtail plant response rating (giant foxtail; [7]) | Giant foxtail plant response rating (giant foxtail; [8]) | B. signalgrass plant response rating (surinam grass; Postemergence, Rate 250 g/ha, scale 0 to 10, 0 no effect, 10 complete control) | B. signalgrass plant response rating (surinam grass; [2]) | Plant response rating, B. signalgrass (surinam grass; [3]) | Plant response rating, B. signalgrass (surinam grass; [4]) | B. signalgrass plant response rating (surinam grass; [5]) | B. signalgrass plant response rating (surinam grass; [6]) | B. signalgrass plant response rating (surinam grass; [7]) | B. signalgrass plant response rating (surinam grass; [8]) | Wheat plant response rating (wheat; [1]) | Wheat plant response rating (wheat; [2]) | Plant response rating, Wheat (wheat; [3]) | Plant response rating, Wheat (wheat; [4]) | Wheat plant response rating (wheat; [5]) | Wheat plant response rating (wheat; [6]) | Wheat plant response rating (wheat; [7]) | Wheat plant response rating (wheat; [8]) | Plant response rating, S. Flatsedge (0 to 10 scale, 0 is no effect, 10 is complete control) (smallflower flatsedge; [9]) | S. Flatsedge plant response rating (0 to 10 scale, 0 is no effect, 10 is complete control) (smallflower flatsedge; [10]) | S. Flatsedge plant response rating (smallflower flatsedge; [11]) | S. Flatsedge plant response rating (smallflower flatsedge; [12]) | Blackgrass plant response rating (blackgrass; [1]) | Blackgrass plant response rating (blackgrass; [2]) | Plant response rating, Blackgrass (blackgrass; [3]) | Plant response rating, Blackgrass (blackgrass; [4]) | Blackgrass plant response rating (blackgrass; [5]) | Blackgrass plant response rating (blackgrass; [6]) | Blackgrass plant response rating (blackgrass; [7]) | Blackgrass plant response rating (blackgrass; [8])
